Structures are written as SMILES. Calls of active or inactive are those of the source. The calls are words filed in the database; no cut-off is given here. Non-standard residues stand in square brackets, D forms with d. Residues, ends and D or L forms follow the SMILES beside them. ξ: configuration not given here. *: point of attachment. ξY = NC(Cc1ccc(O)cc1)C(=O)O; Nva = CCC[CH](N)C(=O)O; Cbz = O=C(OCc1ccccc1)*; ξI = CCC(C)C(N)C(=O)O; ξL = CC(C)CC(N)C(=O)O; ξT = CC(O)C(N)C(=O)O; NHNH2 = NN*

The results in this text go back to ChEMBL document CHEMBL3860032, “Identification of noncovalent proteasome inhibitors with high selectivity for chymotrypsin-like activity by a multistep structure-based virtual screening” (Eur J Med Chem, 2016).

Assay [1] concerns the target T1, Proteasome Macropain subunit MB1 (Homo sapiens) (UniProt P28074).
T1 sequence (whole entry): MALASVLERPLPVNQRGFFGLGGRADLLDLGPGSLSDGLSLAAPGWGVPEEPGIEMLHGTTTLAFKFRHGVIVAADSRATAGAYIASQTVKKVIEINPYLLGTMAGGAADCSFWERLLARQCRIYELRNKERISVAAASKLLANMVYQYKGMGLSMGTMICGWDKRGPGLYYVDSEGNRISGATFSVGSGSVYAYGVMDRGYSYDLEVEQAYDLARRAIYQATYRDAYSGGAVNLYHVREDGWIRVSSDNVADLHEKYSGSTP
Kind of assay: Inhibition of chymotrypsin-like activity of human 20S proteasome at 50 uM using Suc-Leu-Leu-Val-Tyr-AMC as substrate measured for 10 mins by fluorescence assay relative to control.

The target of assay [2] is Proteasome Macropain subunit (Homo sapiens) (UniProt P49721). The experiment in a line: Inhibition of trypsin-like activity of human 20S proteasome at 50 uM using Boc-Leu-Arg-Arg-AMC as substrate measured for 10 mins by fluorescence assay relative to control.
Assay [3] deals with T2, Proteasome Macropain subunit MB1 (Homo sapiens, UniProt P28074).
T2 sequence (P28074 whole entry): T1 sequence (whole entry)
Kind of assay: Competitive inhibition of chymotrypsin-like activity of human 20S proteasome using Suc-Leu-Leu-Val-Tyr-AMC as substrate measured for 10 mins by fluorescence assay.

Assay [4] has as its target T1, Proteasome Macropain subunit MB1 (Homo sapiens). The experiment in a line: Time-dependent inhibition of chymotrypsin-like activity of human 20S proteasome using Suc-Leu-Leu-Val-Tyr-AMC as substrate at 10 to 100 uM by fluorescence assay.
A short description of assay [5]: Cytotoxicity against human MM1R cells assessed as growth inhibition after 24 hrs by MTT assay. The conditions noted are these: MM.1R. The format is functional, cell-based.
Assay [6] can be described thus: Cytotoxicity against human MM1R cells assessed as residual vitality at 100 uM after 24 hrs by MTT assay relative to control. The format is functional.
Assay [7] relates to MM1R. The experiment in a line: Inhibition of proteasome activity in human MM1R cells assessed as increase in total ubiquitin levels at 20 uM after 24 hrs by Western blot method. The format is cell-based.
Assay [8] addresses T3, Proteasome component C5 (Homo sapiens) (UniProt P20618).
T3 sequence (whole entry): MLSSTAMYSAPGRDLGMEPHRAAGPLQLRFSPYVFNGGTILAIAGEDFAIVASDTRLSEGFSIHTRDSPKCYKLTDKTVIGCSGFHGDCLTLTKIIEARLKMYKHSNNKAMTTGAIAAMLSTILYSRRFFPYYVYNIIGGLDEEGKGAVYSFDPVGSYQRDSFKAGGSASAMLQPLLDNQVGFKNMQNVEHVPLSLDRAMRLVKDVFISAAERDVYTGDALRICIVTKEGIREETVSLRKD
Kind of assay: Inhibition of post-glutamyl peptide hydrolyzing activity of human 20S proteasome at 50 uM using Cbz-Leu-Leu-Glu-AMC as substrate measured for 10 mins by fluorescence assay relative to control.

Assay [9] concerns MM1R. The experiment in a line: Inhibition of proteasome activity in human MM1R cells assessed as increase in total ubiquitin levels at 10 uM after 24 hrs by Western blot method. Format: cell-based.

Sequence of Proteasome Macropain subunit (Homo sapiens) (P49721 whole entry): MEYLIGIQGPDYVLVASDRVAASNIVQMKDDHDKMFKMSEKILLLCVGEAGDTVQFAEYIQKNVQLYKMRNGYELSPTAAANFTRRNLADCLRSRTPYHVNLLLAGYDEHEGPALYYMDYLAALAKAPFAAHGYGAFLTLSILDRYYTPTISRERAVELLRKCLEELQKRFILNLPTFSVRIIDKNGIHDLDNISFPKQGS

`CC(Cc1ccccc1)NC(=O)C(O)C(O)C(O)C(O)CCO` (centres undefined): the inhibition in assay [1] is 36%; in [2], 6%. `CC(C)[C@H](NC(=O)[C@H](Cc1ccc(O)cc1)NC(=O)OCc1ccccc1)C(N)=O` (Cbz-Tyr-Val-NH2): the inhibition in assay [1] was 11%; in [2], 23%. As for `CNC(Cc1ccc(OCc2ccccc2)cc1)C(=O)NC(CO)CC(C)C` (centres undefined), the inhibition in assay [1] was 33%. Same read-out and setting: to `CC(C)CC(NC(=O)OCc1ccccc1)C(=O)N[C@@H](Cc1ccc(O)cc1)C(=O)O` (some centres undefined) (Cbz-[ξL]-Tyr-OH) belongs 8%. In assay [3], `COC(=O)[C@H](CC(C)C)NC(=O)[C@H](Cc1ccccc1)NC(=O)[C@H](CO)NC(=O)OCc1ccccc1` (Cbz-Ser-Phe-Leu-OMe) registered a Ki of 10.3 µM. The TDI result in [4] is “Active”. Also, the IC50 in [5] is 17.6 µM. Further, the Activity in assay [6] is reported as 4%. Further, the “increase in total ubiquitin levels (qualitative)” value (“increase” below) in the assay with MM1R [7] was “Active”.

In the case of `CC(=O)NC(Cc1ccccc1)C(=O)Nc1ccc(S(N)(=O)=O)cc1` (centres undefined), in assay [1], the inhibition amounted to 34%. `COC(=O)[C@H](C)NC(=O)[C@H](CC(C)C)NC(=O)[C@H](Cc1ccccc1)NC(=O)OCc1ccccc1` (Cbz-Phe-Leu-Ala-OMe) returned an inhibition in assay [1] of 22%. Same read-out and setting: in the case of `CC(=O)NC(Cc1ccccc1)C(=O)Nc1ccc(C)cc1` (centres undefined) it was 43%. Turning to `CCC[C@H](NC(=O)OCc1ccccc1)C(=O)N[C@@H](Cc1ccc(O)cc1)C(N)=O` (Cbz-[Nva]-Tyr-NH2), the inhibition is 18% in assay [1] and 33% in [2]. For the compound `NC(=O)C(NC(=O)c1ccccc1)SCc1ccccc1` (centres undefined), the inhibition worked out at 21% in assay [1] and 3% in assay [2]. Consider `CC(C)C[C@H](NC(=O)OCc1ccccc1)C(=O)N[C@@H](Cc1ccc(O)cc1)C(N)=O` (Cbz-Leu-Tyr-NH2), for which, in [1], the inhibition was 17%. With `O=C(O)c1ccc(NCn2c(=S)[nH]c3ccccc32)cc1O`, the inhibition in assay [1] turned out to be 54%; in [2], 1%. `OCC(Oc1ccccc1)C(O)C(O)C(CO)Oc1ccccc1` (centres undefined) registered an inhibition in assay [1] of 5%. On the same count and under the same terms, to `O=C(CNC(=O)c1ccccc1)OC(C(=O)O)c1ccc(F)cc1` (centres undefined) belongs 12%. With `COC(=O)[C@H](CC(C)C)NC(=O)[C@H](CC(N)=O)NC(=O)[C@@H](NC(=O)OCc1ccccc1)C(C)C` (Cbz-Val-Asn-Leu-OMe), the inhibition in [1] is 15%; in assay [2], 32%.

For the compound `CC(C)C[C@H](NC(=O)c1cnc2ccccc2n1)C(=O)O`, the inhibition in assay [1] was 34%. Still for that read-out and setting: in the case of `CC(C)(C)Oc1ccc(C[C@@H](NC(=O)OCC2c3ccccc3-c3ccccc32)C(=O)O)cc1` it was 59%. As for `O=C(O)CCCC(=O)NC1CC2c3ccccc3C1c1ccccc12` (centres undefined), the values for the inhibition in assay [1] and in assay [2] were 31% and 7%, respectively. Take `NC(CCC(=O)OCc1ccccc1)C(=O)OCc1ccccc1` (centres undefined): in assay [1], the inhibition came out at 34%. Same read-out and setting: in the case of `O=C(CC(=O)c1cccnc1)NC(=O)c1ccccc1` it was 43%. `CC(NC(=O)OCc1ccccc1)C(=O)NC(Cc1ccc(O)cc1)C(=O)OCc1ccccc1` (centres undefined) registered an inhibition in assay [1] of 22%. For the compound `COC(=O)[C@H](Cc1ccc(O)cc1)NC(=O)[C@H](CC(C)C)NC(=O)[C@H](CO)NC(=O)OCc1ccccc1` (Cbz-Ser-Leu-Tyr-OMe), the inhibition in [2] was determined as 22%. The compound also had a Ki in assay [3] of 4.7 µM. In assay [4], the TDI entry was “Active”. The IC50 in assay [5] came to 22.3 µM. Besides, in assay [6], the Activity was 4%. Further, the “increase” value in the assay with MM1R [7] is “Active”. For `O=C(NCc1ccccc1)C(O)C(O)C(O)C(O)CO` (centres undefined), the values for the inhibition in [1] and in assay [2] were 15% and 2%, respectively. On to `CN/C(=N\CCSCc1ccc2ccccc2n1)NS(=O)(=O)c1ccccc1`, for which affinity in assay [3] was put at a Ki of 2.12 µM. Moreover, the IC50 in assay [5] turned out to be 18.3 µM. Moreover, the Activity in assay [6] is on record as 4%. The “increase” value in the assay on MM1R [7] is “Active”. `CCOC(=O)c1ccc(NC(=O)CSc2nc3ccccc3o2)cc1` returned an inhibition in assay [1] of 13%. With `NC(Cc1c[nH]c2ccccc12)C(=O)OCc1ccccc1` (centres undefined), the inhibition in assay [1] turned out to be 54%. With `NS(=O)(=O)c1ccc(NC(=O)/C=C/c2ccccc2)cc1`, the inhibition in assay [1] worked out at 33%; in assay [2] it was 11%. Consider `CCOC(=O)C(NC(=O)Cc1ccccc1)C(=O)OCC`, for which, in [1], the inhibition came to 49%. On the same count and under the same terms, in the case of `O=C(NC(Cc1ccc(O)cc1)C(=O)N[C@@H](Cc1ccccc1)C(=O)O)OCc1ccccc1` (some centres undefined) (Cbz-[ξY]-Phe-OH) it was 7%. In turn, `COC(=O)[C@H](Cc1ccccc1)NC(=O)[C@H](Cc1ccccc1)NC(=O)[C@H](Cc1ccccc1)NC(=O)OCc1ccccc1` (Cbz-Phe-Phe-Phe-OMe) registered an inhibition in assay [2] of 18%. On to `O=C(Nc1ccc2nc(O)cc(C(=O)O)c2c1)Oc1ccccc1`, for which the inhibition in [1] came out at 48%; in assay [2] it was 74%.

On to `O=C(O)[C@H](Cc1ccc(O)cc1)NS(=O)(=O)Cc1ccccc1`, for which, in [1], the inhibition came out at 60%. As for `CC(C)C[C@H](NC(=O)[C@H](CO)NC(=O)OCc1ccccc1)C(=O)N[C@@H](Cc1ccc(O)cc1)C(=O)NN` (Cbz-Ser-Leu-Tyr-NHNH2), the values for the inhibition in assay [8] and in assay [2] were 23% and 26%, respectively. In assay [3], this compound showed a Ki of 11 µM. The TDI result in assay [4] is “Active”. Besides, the IC50 in assay [5] came out at 29.8 µM. Also, the Activity in assay [6] was 4%. Take `CCCC(NC(=O)OCc1ccccc1)C(=O)NC(Cc1ccc(O)cc1)C(N)=O` (centres undefined) (Cbz-[Nva]-Tyr-NH2; configuration not given here): the inhibition in assay [1] was 17%. Take `CC(C)C[C@@H](C=O)NC(=O)[C@H](CC(C)C)NC(=O)[C@H](CC(C)C)NC(=O)OCc1ccccc1` [MG-132] (Cbz-Leu-Leu-Leu-aldehyde): the IC50 in assay [5] came out at 12.3 µM. Also, the inhibition entry in the assay on MM1R [9] was “Active”. For `NC(=O)C[C@H](NC(=O)OCC1c2ccccc2-c2ccccc21)C(=O)O`, in [1], the inhibition came to 33%. For the compound `CC(C)CC(NC(=O)C(CO)NC(=O)OCc1ccccc1)C(=O)NC(Cc1ccc(O)cc1)C(N)=O` (stereo not drawn) (Cbz-Ser-Leu-Tyr-NH2; configuration not given here), in assay [2], the inhibition was 29%. In addition, in assay [3], the Ki came to 2.18 µM. Also, the IC50 in assay [5] is 28.5 µM. For the same compound, the Activity in assay [6] stood at 4%. The “increase” value in the assay with MM1R [7] was “Active”. For `O=C(Nc1ccccc1C(=O)NCC1CC1)c1cccs1`, the inhibition in assay [1] is 60%. `COC(=O)[C@H](CO)NC(=O)[C@H](CC(C)C)NC(=O)[C@H](CC(C)C)NC(=O)OCc1ccccc1` (Cbz-Leu-Leu-Ser-OMe) showed a Ki in [3] of 0.42 µM. Moreover, in [4], the TDI result was “Active”. Besides, the IC50 in assay [5] is 16.2 µM. The Activity in assay [6] came to 4%. Moreover, in the assay on MM1R [7], the “increase” value is “Active”. Turning to `CC(C)[C@H](NC(=O)[C@H](Cc1ccc(O)cc1)NC(=O)OCc1ccccc1)C(=O)O`, in assay [1], the inhibition is 21%.

Turning to `COC(=O)C(CC(C)C)NC(=O)C(Cc1ccc(O)cc1)N(C(=O)OCc1ccccc1)C(=O)OCc1ccccc1` (centres undefined), in assay [1], the inhibition amounted to 46%. The same measure, in the same setting: in the case of `C[C@H](NC(=O)OCc1ccccc1)C(=O)N[C@@H](Cc1ccccc1)C(N)=O` it was 24%.

As for `CCC(C)C(NC(=O)OCc1ccccc1)C(=O)N[C@@H](Cc1ccc(O)cc1)C(=O)O` (some centres undefined) (Cbz-[ξI]-Tyr-OH), the inhibition in [1] stood at 34%; in assay [2], 11%. In the case of `COC(=O)[C@H](C)NC(=O)[C@H](Cc1ccccc1)NC(=O)[C@H](C)NC(=O)OCc1ccccc1` (Cbz-Ala-Phe-Ala-OMe), the inhibition in [1] and in assay [8] was 24% each time. Regarding `CC(O)C(C=O)NC(=O)CNC(=O)OCc1ccccc1` (stereo not drawn) (Cbz-Gly-[ξT]-aldehyde), in assay [1], the inhibition stood at 23%.

In turn, `CC(C)(C)OC(=O)Cn1ncn(NC(=O)Cc2ccccc2)c1=O` gave an inhibition in assay [1] of 49%.
